What was measured:
[1] = test system: purified human platelets; test: Fluo-4 staining of purified platelets (platelet activation); format: cell-based; details: Fluo-4, with 2 mM calcium chloride
Text: FIGS. 6A and 6B provide further evidence of the functionality of the purified human platelets. […] Dull green fluorescence indicates functional but inactivated platelets. To activate platelets so they can begin to aggregate to initiate the blood clotting process, calcium ions should be at a significant concentration within the platelet cytoplasm.

[2] = test system: inner mitochondrial membrane potential of human platelets; details: JC-1 2 μM, purified human platelets
Protocol: In FIG. 5A, platelets are stained with mitochondrial inner membrane sensitive dye JC-1(2 μM) (630× magnification). […] The red stained mitochondria reflect mitochondria with a Wm capable of supporting ATP production. […] FCCP is an uncoupler, a chemical that destroys the inner mitochondrial membrane potential Wm.

[3] = test system: isolated human platelet mitochondria; test: ATP levels in isolated mitochondria incubated with supplement (chemiluminescence assay); format: biochemical; details: 2.0 micromolar (maximum increase)
Protocol: Experiment: Aliquots of isolated human platelet mitochondria were incubated for different amounts of time in the presence of differing concentrations of L-carnitine, a compound known to stimulate the uptake and metabolism of fat molecules for use by the mitochondria to produce ATP. Along the X-axis of this graph, the numbers 1, 2, 3, and 4 refer to 0, 0.2 micromolar, 2.0 micromolar, and 20 micromolar concentrations of L-carnitine in the mitochondrial incubation buffer. The mitochondrial aliquots in hatched columns (Series 1) were incubated for 20 minutes in the presence of the L-carnitine while the mitochondrial aliquots in non-hatched columns (Series 2) were incubated for 60 minutes in the presence of L-carnitine. After these incubation times, the samples were processed to measure ATP by a very sensitive chemiluminescence assay.

In the case of `CNc1ccc2oc(C[C@H]3O[C@@]4(CC[C@H]3C)O[C@H]([C@H](C)C(=O)c3ccc[nH]3)[C@H](C)C[C@H]4C)nc2c1C(=O)O` [A23187], the “effect on Fluo-4 green fluorescence (platelet activation)” value [1] is reported as “much more intense green fluorescence”.
With `N#CC(C#N)=NNc1ccc(OC(F)(F)F)cc1` [FCCP, Carbonyl cyanide-4-(trifluoromethoxy)phenylhydrazone] the “effect on JC-1 red fluorescence (functional mitochondria)” value [2] was “elimination of the red fluorescence”.
In the case of `C[N+](C)(C)C[C@H](O)CC(=O)[O-]` [L-carnitine], the “increase in ATP levels” value ([3]; 20 minute incubation (Series 1)) is reported as 47% and the “increase in ATP levels” value ([3]; 60 minute incubation (Series 2)) is reported as 80%.
